# Values of other authors in article PMC8536644, “Enigmatic mechanism of the N-vinylpyrrolidone hepatocarcinogenicity in the rat” (Archives of Toxicology, 2021).
# Tested on: CYP2B
# Details: ref Waxmann [1999]; Lubet et al. [1985]; Tompkins and Wallac [2007]; cited from earlier work
smiles,measurement,value
CCC1(c2ccccc2)C(=O)NC(=O)NC1=O [phenobarbital],Increase of hepatic PROD activities,50 to 140 fold
